Experimental findings from ChEMBL document CHEMBL1131796, “Design and synthesis of a novel synthetic NAPAP-penta-saccharide conjugate displaying a dual antithrombotic action” (Bioorg Med Chem Lett, 1999) are described below.

For data set [1], the target named is T1, Antithrombin-III (Homo sapiens, UniProt P01008). Nature of the data set: In vitro antithrombin III (ATIII)-mediated anti-Xa activity was determined.
A short description of data set [2]: In vitro half life in rat. The following applies: in vivo.
In the next data set the target is Prothrombin (Homo sapiens, UniProt P00734). Nature of the data set: In vitro anti-thrombin activity was determined.
Data set [3] has as its target T1, Antithrombin-III. Kind of data set: (§1) Antithrombin III (ATIII)-mediated anti-Xa activity was determined.
Data set [4] concerns the target T1, Antithrombin-III. Described as §1. This is another data set of the same source.

T1 sequence (P01008 whole entry): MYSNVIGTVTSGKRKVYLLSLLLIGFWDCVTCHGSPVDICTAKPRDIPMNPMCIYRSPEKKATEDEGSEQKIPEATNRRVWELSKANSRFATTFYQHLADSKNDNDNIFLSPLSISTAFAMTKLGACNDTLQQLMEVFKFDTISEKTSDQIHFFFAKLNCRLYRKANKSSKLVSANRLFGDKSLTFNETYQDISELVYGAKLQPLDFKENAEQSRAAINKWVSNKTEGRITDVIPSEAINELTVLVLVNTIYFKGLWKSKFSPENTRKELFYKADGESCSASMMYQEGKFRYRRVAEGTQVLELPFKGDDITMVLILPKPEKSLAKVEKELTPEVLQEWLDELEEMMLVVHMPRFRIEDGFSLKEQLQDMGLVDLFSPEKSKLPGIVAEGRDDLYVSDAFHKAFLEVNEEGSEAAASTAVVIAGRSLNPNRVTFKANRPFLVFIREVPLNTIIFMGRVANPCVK

By half-life is commonly meant the time in which the quantity being followed falls by half. High values mean slow decline, low ones rapid decline. By IC50 is commonly meant the concentration at which inhibition is half-maximal. Read a high IC50 as weaker potency in that assay. At Antithrombin-III [1], `CO[C@H]1O[C@H](COS(=O)(=O)O)[C@@H](O[C@@H]2O[C@@H](C(=O)O)[C@@H](O[C@H]3O[C@H](COS(=O)(=O)O)[C@@H](O[C@@H]4O[C@H](C(=O)O)[C@@H](O[C@H]5O[C@H](COS(=O)(=O)O)[C@@H](OCCOCCOCCOCCNC(=O)c6ccc(NC(=O)CSC[C@H](NS(=O)(=O)c7ccc8ccccc8c7)C(=O)NC(Cc7ccc(C(=N)N)cc7)C(=O)N7C=CCCC7)cc6)[C@H](OS(=O)(=O)O)[C@H]5OS(=O)(=O)O)[C@H](OC)[C@H]4OS(=O)(=O)O)[C@H](OS(=O)(=O)O)[C@H]3OS(=O)(=O)O)[C@H](OC)[C@H]2OS(=O)(=O)O)[C@H](OS(=O)(=O)O)[C@H]1OS(=O)(=O)O` (stereo not given in full) registered an Activity of 885 U mg-1. This compound gave a half-life in data set [2] of 1.5 h. For the same compound, the IC50 against Prothrombin was determined as 350 nM. `N=C(N)c1ccc(C[C@@H](NC(=O)CNS(=O)(=O)c2ccc3ccccc3c2)C(=O)N2CCCCC2)cc1` yielded an IC50 at Antithrombin-III [3] of 570 nM. Take `CO[C@@H]1OC(COS(=O)(=O)O)[C@H](O[C@@H]2OC(C(=O)O)[C@H](O[C@@H]3OC(COS(=O)(=O)O)[C@H](O[C@@H]4OC(C(=O)O)[C@H](O[C@@H]5OC(COS(=O)(=O)O)[C@@H](O)[C@@H](OS(=O)(=O)O)C5OS(=O)(=O)O)[C@@H](OC)C4OS(=O)(=O)O)[C@@H](OS(=O)(=O)O)C3OS(=O)(=O)O)[C@@H](OC)C2OS(=O)(=O)O)[C@@H](OS(=O)(=O)O)C1OS(=O)(=O)O` (stereo not given in full): the Activity on Antithrombin-III [4] came out at 1160 U mg-1.
